Test results: patent US8691256B2, “Pest control compositions and methods” (Tyratech, Inc., priority 2008, dated 2014)
Where two headings read alike, the source gives them in different places. One block for each compound: values may come before it.

Key:
[1] = target: Aedes aegypti; assay: Pesticidal effect (KD) against Aedes aegypti; format: in vivo
Method: With reference to FIG. 4A, the pesticidal effect against Aedes aegypti was determined for Blend 19 (labeled “HL1”, exemplified in Ingredient Family 15 in Table 6) and the composition including clothianidin (CL) and Blend 19.
Similarly, with reference to FIG. 4B, the pesticidal effect against Aedes aegypti was determined for Blend 19 (labeled “HL1”) and the composition including CL and Blend 19.
Similarly, with reference to FIG. 4C, the pesticidal effect against Aedes aegypti was determined for Blend 19 (labeled “HL1”) and the composition including Imidacloprid and Blend 19.
With reference to FIG. 5, the pesticidal effect against Aedes aegypti was determined for Blend 11 (labeled “B5028”, exemplified in Ingredient Family 2 in Table 6) and the composition including Imidacloprid (labeled “I”) and B5028.

[2] = system: Periplaneta americana; assay: Pesticidal effect (mortality) against Periplaneta americana; format: in vivo; details: 30 minutes post-treatment, Blend 19 5%
Method: With reference to FIG. 6A, the pesticidal effect against Periplaneta americana was determined for Blend 19 (labeled “HL1”, exemplified in Ingredient Family 15 in Table 6) and the composition including clothianidin (CL) and Blend 19.
With reference to FIG. 6B, the pesticidal effect against Periplaneta americana was determined for Blend 19 (labeled “HL1”) and the composition including Imidacloprid and Blend 19.

[3] = system: Blattella germanica (German cockroaches); assay: Pesticidal effect against German cockroaches (knock down and 100% kill time); format: in vivo
Method: With reference to Table 9, the pesticidal effect against Blattella germanica (German cockroaches) was determined for DM, Blend 12 (exemplified in Ingredient Family 9 of Table 6), and the composition including deltamethrin (DM) and Blend 12.
Similarly, with reference to Table 10, the pesticidal effect against German cockroaches was determined for deltamethrin (DM), Blend 7 (exemplified in Ingredient Family 5 of Table 6), and the composition including DM and Blend 7.

[4] = system: Drosphila melanogaster; assay: Toxicity against Drosphila melanogaster by direct spray onto flies; format: in vivo, Drosophila melanogaster; details: 30 flies per composition, Fipronil 20 ppm, Blend 19 0.5 μg/fly, combination 0.5 μg Blend 19 + 20 ppm fipronil
Method: With reference to Table 14, the pesticidal effect against drosphila melanogaster was determined for Blend 19 and the composition including fipnoril and Blend 19. The composition of Blend 19 is also exemplified in Ingredient Family 15 of Table 6. Each composition was tested on 30 drosphila melanogaster by spraying directly onto the flies. Treatment with acetone as control at 0.5 μl/fly killed 2 flies, fipnoril alone at 20 ppm killed 12 flies, and Blend 19 alone at 0.5 μg/fly killed 10 flies. However, treatment with fipronil at 20 ppm combined with Blend 19 at 0.5 μg/fly killed all of the 30 flies.

[5] = system: Drosophila sp.; assay: Pesticidal effect (KD) against Drosophila sp.; format: in vivo; details: 30 seconds post-treatment; Imidacloprid 50 ppm; Blend 19 2.5%; combination 50 ppm + 2.5% (FIG. 4D)
Method: Similarly, with reference to FIG. 4D, the pesticidal effect against Drosophila sp. was determined for Blend 19 (labeled “HL1”) and the composition including Imidacloprid and Blend 19.

[6] = system: thrips; assay: Knockdown and mortality of thrips; format: in vivo
Method: Thrips were exposed to three different groups of compositions. Both knockdown (KD) and mortality were measured at indicated time intervals. Knockdown of target pests is measured in a plexilglass chamber at indicated intervals. Mortality of target pests is measured in cylindrical polyethylene containers with 10% sucrose pads. The mortality value is based on a combination of dead and moribund pests over the total number of pests initially released.
Thrips were exposed to three different groups of compositions. […] The composition of Blend 8 is exemplified in Ingredient Family 21 in Table 6.
Thrips were exposed to three different groups of compositions. […] Blend 38 (label “B5049” and “TT 1A”) is exemplified in Ingredient Family 12 in Table 6.

[7] = system: adult green peach aphids; assay: Greenhouse spray test against adult green peach aphids; format: in vivo; details: imidacloprid in water at 100 ppm; three days after spraying
Excerpt: Adult green peach aphids were observed and counted on the plants in a greenhouse. Then different compositions were sprayed directly onto the plants with aphids. Three days after the composition was applied, aphids were counted again to evaluate the pesticidal effects of the composition.

[8] = target: T1, tyramine receptor (TyrR) (Drosophila melanogaster, UniProt P22270); assay: 3H-tyramine saturation and inhibition binding to membranes of Schneider cells expressing tyramine receptor; details: for efficiency at displacing ^3H-tyramine binding: compared with tyramine
T1 construct: oligonucleotides that are used to amplify the open reading frame of the Drosophila tyramine receptor (TyrR); expressed in transfected cells; whole cells or crude membrane fractions
T1 sequence (P22270 27-601): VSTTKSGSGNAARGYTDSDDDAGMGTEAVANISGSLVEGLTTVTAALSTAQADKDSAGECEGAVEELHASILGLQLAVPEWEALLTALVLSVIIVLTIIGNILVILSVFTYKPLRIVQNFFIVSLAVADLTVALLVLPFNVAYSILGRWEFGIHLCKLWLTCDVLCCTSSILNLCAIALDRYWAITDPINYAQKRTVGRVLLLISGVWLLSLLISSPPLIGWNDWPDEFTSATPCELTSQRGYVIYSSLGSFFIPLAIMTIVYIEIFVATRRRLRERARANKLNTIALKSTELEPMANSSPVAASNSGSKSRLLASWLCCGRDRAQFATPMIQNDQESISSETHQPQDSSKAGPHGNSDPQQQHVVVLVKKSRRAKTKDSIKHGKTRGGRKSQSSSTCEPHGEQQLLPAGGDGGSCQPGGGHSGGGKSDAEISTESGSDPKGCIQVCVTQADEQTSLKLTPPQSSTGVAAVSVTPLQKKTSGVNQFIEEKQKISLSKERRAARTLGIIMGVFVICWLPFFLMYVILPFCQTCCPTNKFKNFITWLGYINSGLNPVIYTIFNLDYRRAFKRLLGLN

[9] = target: T2, tyramine receptor (Drosophila melanogaster, UniProt P22270); assay: Whole cell 3H-tyramine binding/uptake in transfected Schneider cells
T2 construct: oligonucleotides that are used to amplify the open reading frame of the Drosophila tyramine receptor (TyrR); expressed in transfected cells; whole cells or crude membrane fractions
T2 sequence (P22270 27-601): T1 sequence (P22270 27-601)
Excerpt: For transfection, Drosophila Schneider cells are stably transfected with pAc5(B)-TyrR ORF using the calcium phosphate-DNA coprecipitation protocol as described by Invitrogen Drosophila Expression System (DES) manual. The precipitation protocol is the same for either transient or stable transfection except for the use of an antibiotic resistant plasmid for stable transfection. At least about ten clones of stably transfected cells are selected and separately propagated. Stable clones expressing the receptors are selected by whole cell binding/uptake using ^3H-tyramine. […] Nonspecific binding is determined by including about 50 μM unlabeled-tyramine in the reaction. Binding is quantified counting radioactivity using a using a Liquid Scintillation β-counter (Beckman, Model LS1801). […]
Cells transfected with the tyramine receptor (about 1×10^6 cells/ml) are cultured in each well of a multi-well plate. […] Solubilized cells are transferred into about 4 ml Liquid Scintillation Solution (LSS) and vigorously vortexed for about 30 sec before counting the radioactivity using a Liquid Scintillation β-counter (Beckman, Model LS1801) (LSC).
Receptor specific binding data is expressed as fmol specific binding per 1×10^6 cells and measured as a function of ^3H-tyramine concentration. […]

[10] = Thrips, 24 h, read-out: mortality of the thrips
[11] = imidacloprid alone at 1 ppm, till the end of the experiment at 24 hours post treatment
[12] = imidacloprid alone at 10 ppm, till the end of the experiment at 24 hours post treatment
[13] = saturation binding to membranes of Schneider cells expressing tyramine receptor

SMILES: CN/C(=N\[N+](=O)[O-])NCc1cnc(Cl)s1 [CL, clothianidin]
KD of the target insect ([1]; CL alone at 250 ppm (FIG. 4B)): no KD
KD of the target insect ([1]; CL alone at 500 ppm (FIG. 4A)): no KD
mortality of the target insect ([2]; CL 0.05%, combination 0.05% + 5% (FIG. 6A)): no mortality

SMILES: CC1(C)[C@H](C(=O)O[C@H](C#N)c2cccc(Oc3ccccc3)c2)[C@@H]1C=C(Br)Br [DM, deltamethrin]
100% Kill ([3]; Table 9: DM 0.037 mg/cm^2, Blend 12 1.9 mg/cm^2): 15 min
100% Kill ([3]; Table 10: DM 0.037 mg/cm^2): 12 min

SMILES: N#Cc1nn(-c2c(Cl)cc(C(F)(F)F)cc2Cl)c(N)c1[S+]([O-])C(F)(F)F (centres unmarked) [Fipronil]
# of Flies Killed [4]: 12/30
# of Flies Killed ([4]; listed as fipnoril): 12

SMILES: O=[N+]([O-])NC1=NCCN1Cc1ccc(Cl)nc1 [Imidacloprid]
KD of the target insect ([1]; 30 seconds post-treatment, Imidacloprid 250 ppm, Blend 19 2.5%, combination 250 ppm + 2.5% (FIG. 4C)): 20%
KD of the target insect ([1]; Imidacloprid 500 ppm, B5028 5%, combination 500 ppm + 5% (FIG. 5)): no KD
KD of the target insect [5]: 0%
mortality of the target insect ([2]; Imidacloprid alone at 0.05%, 0.033% and 0.01%, combination Imidacloprid 0.033% + 5% Blend 19 (FIG. 6B)): no mortality
mortality at 100 ppm ([6]; Thrips, 2 h, read-out: mortality of the thrips): 10%
mortality at 100 ppm ([6]; Thrips, 4 h, read-out: mortality of the thrips): 20%
mortality at 50 ppm [6, 10]: 50%
mortality at 100 ppm [6, 10]: 40%
KD of the thrips [6, 11]: no KD
mortality of the thrips [6, 11]: no mortality
KD of the thrips [6, 12]: no KD
mortality of the thrips [6, 12]: no mortality
KD of the thrips ([6]; imidacloprid alone at 20 ppm, 24 hours post treatment): 12%
mortality of the thrips ([6]; imidacloprid alone at 20 ppm, till the end of the experiment at 24 hours post treatment): no mortality
KD of the thrips ([6]; imidacloprid alone at 50 ppm, 24 hours post treatment): 100%
KD of the thrips ([6]; imidacloprid alone at 100 ppm, 2 hours post treatment): 10%
KD of the thrips ([6]; imidacloprid alone at 100 ppm, 4 hours post treatment): 20%
KD of the thrips ([6]; imidacloprid alone at 100 ppm, 24 hours post treatment): 80%
change in aphid numbers [7]: No changes in aphid numbers

rank order of potency (Ki and EC50) [8]: tyramine>octopamine>dopamine>serotonin
efficiency at displacing ^3H-tyramine binding [8]: less efficient than tyramine
SMILES: NCC(O)c1ccc(O)cc1 (centres unmarked) [Octopamine]

SMILES: NCCc1ccc(O)cc1 [Tyramine (TA), Tyramine]
rank order of potency (Ki and EC50) [8]: tyramine>octopamine>dopamine>serotonin
response of untransfected cells ([9]; concentrations as high as about 100 μM): do not respond

SMILES: NCCc1ccc(O)cc1 [^3H-tyramine]
Bmax [8, 13]: about 0.679 pmol/mg protein
Kd [8, 13]: ~1.26 nM
^3H-tyramine concentration at which maximum specific binding occurs ([9]; whole transfected cells): about 5 nM

rank order of potency (Ki and EC50) [8]: tyramine>octopamine>dopamine>serotonin
efficiency at displacing ^3H-tyramine binding [8]: less efficient than tyramine
SMILES: NCCc1ccc(O)c(O)c1 [dopamine, Dopamine]
